In patent publication US11103158B2, “Pure non-invasive method for identification of organ diseases or impaired organ function by investigation of marker substances in exhaled air stimulated by inhaled marker substances” (FREIE UNIVERSITÄT BERLIN, priority 2015, dated 2021):
Like-named read-outs stand apart in the source and are kept apart here.

Legend:
[1] = in vivo
[2] = PTR-MS of volatile organic compounds in exhaled breath of vegan persons, volunteers and liver patients, also grouped by LiMAx value
CYP 2C9 and CYP 2C19 = conditions: reported by Mizayawa et al.; cited from earlier work
[3] = tested on: mammary, liver, lung, and other cancers; conditions: literature reports (Mizayawa et al.; Gold 1997); cited from earlier work

Compound	concentration in exhaled breath (m/z 137) [1]	concentration in the expiratory air (m/z 137) [1]	also measured
C=C(C)[C@H]1CC=C(C)CC1 [limonene]	–	–	concentration in exhaled breath (m/z 137) ([2]; comparison of the three groups (vegan diet, normal diet, liver disease patients), taking error bars into account, FIG. 1A): almost identical; concentration in the expiratory air (m/z 137) ([2]; patients with LiMAx value below 176 compared to LiMAx 176 to 351 or above 351, FIG. 1B): significantly increased; metabolization by enzymes (CYP 2C9 and CYP 2C19): metabolized by enzymes of the Cytochrome P450 family
C=C(C)[C@@H]1CC=C(CO)CC1 [perillyl alcohol]	–	–	chemopreventive activity / cancer prevention [3]: prevent mammary, liver, lung, and other cancers

The next lines start with results.

concentration in exhaled breath (m/z 137) [1]	concentration in the expiratory air (m/z 137) [1]	Compound	also measured
almost identical	significantly increased	CC1=CCC2CC1C2(C)C (stereo not drawn) [α-pinene]	–
almost identical	significantly increased	γ-pinene	–
almost identical	significantly increased	C=C1CCC2CC1C2(C)C (stereo not drawn) [β-pinene]	–
